Read-outs that look alike come from different tables or passages of the source.
What was measured:
[1] = system: TC71; assay: Cytotoxicity, resazurin fluorescence, TC71; type: cell-based; details: Homo sapiens, TC-71; Table 6; 72 hr; EWS cells
[2] = system: EWS cells; assay: Cytotoxicity, average over Ewing (EWS) cell panel; type: cell-based; details: Table 6; 72 hr; average of EWS cells
Protocol: (§1) Exemplary compounds of the presently-disclosed subject matter were assessed for cytotoxicity (Table 5) in Ewing sarcoma (TC32) and non-Ewing (PC3 prostate cancer). […] Cells (1000-5000/well) were seeded in 96-well plates and allowed to attach and grow for 24 hr prior to adding compounds in half-log increments from 0.3 nM-10 μM. Cell viability was assessed after 72 hr continuous incubation with compounds using resazurin fluorescence. GI50 values were estimated using GraphPad Prism.

[3] = system: Hela; assay: Cytotoxicity, resazurin fluorescence, Hela; type: cell-based; details: Homo sapiens, HeLa; Table 6; 72 hr; non EWS cells; read-out: GI50 Hela
[4] = system: DU145; assay: Cytotoxicity, resazurin fluorescence, DU145; type: cell-based; details: Homo sapiens, DU-145; Table 6; 72 hr; non EWS cells; read-out: GI50 DU145
[5] = system: TC32; assay: Cytotoxicity, resazurin fluorescence, TC32; type: cell-based; details: Homo sapiens, TC-32, 72 h
Protocol: as §1

[6] = system: BL1395; assay: Cytotoxicity, resazurin fluorescence, BL1395; type: cell-based; details: Table 6; 72 hr; lymphocyte origin; read-out: GI50 BL1395
[7] = system: ES7; assay: Cytotoxicity, resazurin fluorescence, ES7; type: cell-based; details: Homo sapiens, ES7; Table 6; 72 hr; EWS cells
[8] = system: SK.ES1; assay: Cytotoxicity, resazurin fluorescence, SK.ES1; type: cell-based; details: Homo sapiens, SK-ES1; Table 6; 72 hr; EWS cells
[9] = system: TC32 cells; assay: Potency IC50 in TC32 cells and selectivity; type: cell-based; details: Homo sapiens, TC-32, Table 2, read-out: IC50 TC32
Protocol: (§2) Exemplary compounds of the presently-disclosed subject matter were assessed for activity, including clearance, potency, and selectivity. Results from studies are compiled in Tables 2-4.
(§3) Desirable clearance was identified at lower values of mL hr^−1kg^−1 (e.g., about ≤10 mL hr^−1 kg^−1), desirable potency was identified at lower values of IC50 (e.g., about ≤10 nM in TC32 cells), and desired selectivity was identified at higher ratios of IC50 in PC3/IC50 in TC32 (e.g. about >10).

[10] = system: HepG2; assay: Cytotoxicity, resazurin fluorescence, HepG2; type: cell-based; details: Homo sapiens, HepG2; Table 6; 72 hr; hepatic origin; read-out: GI50 HepG2
[11] = system: RDES; assay: Cytotoxicity, resazurin fluorescence, RDES; type: cell-based; details: RD-ES; Table 6; 72 hr; EWS cells
[12] = log P; type: physicochemical; details: Table 2
[13] = system: PANC1; assay: Cytotoxicity, resazurin fluorescence, PANC1; type: cell-based; details: Homo sapiens, PANC-1; Table 6; 72 hr; non EWS cells; read-out: GI50 PANC1
[14] = system: A549; assay: Cytotoxicity, resazurin fluorescence, A549; type: cell-based; details: Homo sapiens, A549; Table 6; 72 hr; non EWS cells; read-out: GI50 A549
[15] = system: Non EWS cells; assay: Cytotoxicity, average over non-Ewing cell panel; type: cell-based; details: Table 6; 72 hr; average of non EWS cells; read-out: GI50 Average, Non EWS cells
Protocol: as §1

[16] = system: A673; assay: Cytotoxicity, resazurin fluorescence, A673; type: cell-based; details: Homo sapiens, A673; Table 6; 72 hr; EWS cells
[17] = system: PC3; assay: Cytotoxicity, resazurin fluorescence, PC3; type: cell-based; details: Homo sapiens, PC-3, 72 h
Protocol: as §1

[18] = system: LNCap; assay: Cytotoxicity, resazurin fluorescence, LNCap; type: cell-based; details: Homo sapiens, LNCaP; Table 6; 72 hr; non EWS cells; read-out: GI50 LNCap
[19] = system: PC3; assay: IC50 in PC3 cells; type: cell-based; details: Homo sapiens, PC-3, read-out: IC50 PC2, Table 2; head prints PC2, text PC3
Protocol: as §2, §3

[20] = system: H460; assay: Cytotoxicity, resazurin fluorescence, H460; type: cell-based; details: Homo sapiens, NCI-H460; Table 6; 72 hr; non EWS cells; read-out: GI50 H460
[21] = system: ES4; assay: Cytotoxicity, resazurin fluorescence, ES4; type: cell-based; details: Table 6; 72 hr; EWS cells
[22] = system: ES8; assay: Cytotoxicity, resazurin fluorescence, ES8; type: cell-based; details: Homo sapiens, ES8; Table 6; 72 hr; EWS cells
[23] = system: 5838; assay: Cytotoxicity, resazurin fluorescence, 5838; type: cell-based; details: Table 6; 72 hr; express EWS-ERG
[24] = system: ES3; assay: Cytotoxicity, resazurin fluorescence, ES3; type: cell-based; details: Table 6; 72 hr; EWS cells
[25] = system: RH41; assay: Cytotoxicity, 72 hr resazurin assay, RH41 alveolar rhabdomyosarcoma; type: cell-based
Text: (§4) A fibroblast cell line (HS68 (FIG. 2E)) was used as a non-tumor control. The area under the concentration-efficacy curve (AUC; possible range of 0-20000) was used to estimate an alternate metric to GI50 for cases of shallow efficacy (e.g., the limited effect in HS68 cells).

[26] = system: HS68; assay: Cytotoxicity, 72 hr resazurin assay, HS68 fibroblast; type: cell-based
Text: as §4

[27] = system: RD; assay: Cytotoxicity, 72 hr resazurin assay, RD embryonal rhabdomyosarcoma; type: cell-based
Text: as §4

[28] = system: RH30; assay: Cytotoxicity, 72 hr resazurin assay, RH30 alveolar rhabdomyosarcoma; type: cell-based
Text: as §4

[29] = system: JR1; assay: Cytotoxicity, 72 hr resazurin assay, JR1 embryonal rhabdomyosarcoma; type: cell-based
Text: as §4

[30] = system: rhabdomyosarcoma cells; assay: Cytotoxicity, 72 hr resazurin assay, four rhabdomyosarcoma cell lines; type: cell-based; details: JR1, RD, RH30, RH41, read-out: GI50 range in the four cell lines tested
Text: as §4

[31] = Clearance (CL) / pharmacokinetics; type: in vivo, mice; details: mouse, plasma, iv; Table 2
Protocol: as §2, §3
Pharmacokinetics of exemplary compounds of the presently-disclosed subject matter were studied in mice following bolus IV dosing. Groups of three mice were administered the compound(s) and blood samples were collected via saphenous bleed. Plasma was separated by centrifugation and extracted to quantitate analytes by LC/MS/MS. Sample analysis followed upon the system meeting system suitability criteria customary for fit for purpose analytical methods. FIG. 1A includes data comparing YL-C09 to mithramycin (MTM) dosed separately. FIG. 1B includes data for YL-B171, YL-C110 and MTM dosed in cassette format.

[32] = Table 6, non EWS cells, read-out: GI50 PC3
[33] = area under concentration-efficacy curve, possible range 0-20000

| IC50 [9] [nM] | logP [12] | IC50 [19] [nM] | SMILES | GI50 [1] [nM] | GI50 [2] [nM] | GI50 [3] [nM] | GI50 ([5]; read-out: GI50 TC32, Table 5) [nM] | GI50 [6] [nM] | GI50 [7] [nM] | GI50 [8] [nM] | GI50 [10] [nM] | GI50 [11] [nM] | GI50 [13] [nM] | GI50 [14] [nM] | GI50 [15] [nM] | GI50 [16] [nM] | GI50 [17, 32] [nM] | GI50 ([17]; read-out: GI50 PC3, Table 5) [nM] | GI50 [18] [nM] | GI50 [20] [nM] | other results |
| --- | --- | --- | --- | --- | --- | --- | --- | --- | --- | --- | --- | --- | --- | --- | --- | --- | --- | --- | --- | --- | --- |
| 4.62 | 2.93 | 10.7 | CO[C@H](C(=NOCCNC(=O)c1cc2cc(OC(F)(F)F)ccc2[nH]1)[C@@H](O)[C@@H](C)O)[C@@H]1Cc2cc3cc(O[C@H]4C[C@@H](O[C@H]5C[C@@H](O)[C@H](O)[C@@H](C)O5)[C@H](O)[C@@H](C)O4)c(C)c(O)c3c(O)c2C(=O)[C@H]1O[C@H]1C[C@@H](O[C@H]2C[C@@H](O[C@H]3C[C@](C)(O)[C@H](O)[C@@H](C)O3)[C@@H](O)[C@@H](C)O2)[C@H](O)[C@@H](C)O1 [YL-B171] | 19.5 | 31.7 | 105 | 26 | 51.5 | 26.7 | 35.4 | 202 | 32.7 | 138 | 114 | 97.6 | 51 | 49.3 | 49 | 117 | 69.5 | GI50 [4]: 32.5 nM; GI50 ([5]; read-out: GI50 TC32, Table 6, EWS cells): 25.6 nM; GI50 [21]: 20.4 nM; GI50 [22]: 36.7 nM; GI50 [23]: 37.1 nM; GI50 [24]: 31.5 nM |
| 18.5 | 1.73 | 124 | CO[C@H](C(=NOCCNC(=O)c1[nH]c2ccc(Cl)cc2c1-c1cncnc1)[C@@H](O)[C@@H](C)O)[C@@H]1Cc2cc3cc(O[C@H]4C[C@@H](O[C@H]5C[C@@H](O)[C@H](O)[C@@H](C)O5)[C@H](O)[C@@H](C)O4)c(C)c(O)c3c(O)c2C(=O)[C@H]1O[C@H]1C[C@@H](O[C@H]2C[C@@H](O[C@H]3C[C@](C)(O)[C@H](O)[C@@H](C)O3)[C@@H](O)[C@@H](C)O2)[C@H](O)[C@@H](C)O1 [YL-C122] |  |  |  | 162 |  |  |  |  |  |  |  |  |  |  | 477 |  |  | clearance [31]: 0.683 mL/min/kg |

| SMILES | IC50 [9] [nM] | logP [12] | IC50 [19] [nM] | GI50 [1] [nM] | GI50 [2] [nM] | GI50 [3] [nM] | GI50 ([5]; read-out: GI50 TC32, Table 5) [nM] | GI50 [6] [nM] | GI50 [7] [nM] | GI50 [8] [nM] | GI50 [10] [nM] | GI50 [11] [nM] | GI50 [13] [nM] | GI50 [14] [nM] | GI50 [15] [nM] | GI50 [16] [nM] | GI50 [17, 32] [nM] | GI50 ([17]; read-out: GI50 PC3, Table 5) [nM] | GI50 [18] [nM] | GI50 [20] [nM] | other results |
| --- | --- | --- | --- | --- | --- | --- | --- | --- | --- | --- | --- | --- | --- | --- | --- | --- | --- | --- | --- | --- | --- |
| COC(C(=NOCc1cc2ccccc2[nH]1)C(O)C(C)O)C1Cc2cc3cc(OC4CC(OC5CC(O)C(O)C(C)O5)C(O)C(C)O4)c(C)c(O)c3c(O)c2C(=O)C1OC1CC(OC2CC(OC3CC(C)(O)C(O)C(C)O3)C(O)C(C)O2)C(O)C(C)O1 (stereo not drawn) [YL-C09] | 1.96 | 1.9 | 5.65 | 11.5 | 21.1 | 27.1 | 17 | 24.1 | 14.5 | 18 | 80.1 | 16.8 | 33.4 | 22.6 | 34.5 | 38.1 | 19.3 |  | 63.3 | 21.5 | GI50 ([25]; Homo sapiens, Rh41, alveolar): 24.1 nM; AUC RH41 [25, 33]: 9239; GI50 ([26]; Homo sapiens, Hs68, fibroblast, non-tumor control): 1240 nM; AUC HS68 [26, 33]: 15517; GI50 ([27]; Homo sapiens, RD, embryonal): 20.7 nM; AUC RD [27, 33]: 8443; GI50 ([28]; Rh30, alveolar): 24.3 nM; AUC RH30 [28, 33]: 7400; AUC JR1 [29, 33]: 8554; GI50 ([29]; embryonal): 15 nM; GI50 [30]: 15 to 25 nM; GI50 [21]: 16.6 nM; GI50 [22]: 31.5 nM; GI50 [23]: 27.5 nM; GI50 [24]: 19.2 nM |

— US20260297121A1, “MITHRAMYCIN (MTM) 2’ OXIMES” (University of Kentucky Research Foundation, priority 2023, published 2026)
